# Data published in patent publication US20250152661A1, “NOVEL COMBINATION TREATMENT REGIMEN OF BACTERIAL INFECTIONS” (BONE SUPPORT AB, priority 2022, published 2025).
# Like-named read-outs stand apart in the source and are kept apart here.
# Experiments:
# S. aureus ATCC 25923 = experiment: MIC values predetermined using MALDI-TOF MS system (Vitek MS); format: cell-based, Staphylococcus aureus
# [1] = test system: S. aureus clinical strain P-3; experiment: as above; format: cell-based, Staphylococcus aureus
compound,measurement,setting,value
"CO[C@H]1/C=C/O[C@@]2(C)Oc3c(C)c(O)c4c(O)c(c(/C=N/N5CCN(C)CC5)c(O)c4c3C2=O)NC(=O)/C(C)=C\C=C\[C@H](C)[C@H](O)[C@@H](C)[C@@H](O)[C@@H](C)[C@H](OC(C)=O)[C@@H]1C [RIF, rifampicin]",MIC,"S. aureus ATCC 25923; Staphylococcus aureus, ATCC25923, S. aureus ATCC 25923, read-out: MIC",0.008 µg/mL
same,MIC,"[1]; Staphylococcus aureus, S. aureus clinical strain P-3, read-out: MIC",0.008 µg/mL
"CN[C@H](CC(C)C)C(=O)N[C@H]1C(=O)N[C@@H](CC(N)=O)C(=O)N[C@H]2C(=O)N[C@H]3C(=O)N[C@H](C(=O)N[C@H](C(=O)O)c4cc(O)cc(O)c4-c4cc3ccc4O)[C@H](O)c3ccc(c(Cl)c3)Oc3cc2cc(c3O[C@@H]2O[C@H](CO)[C@@H](O)[C@H](O)[C@H]2O[C@H]2C[C@](C)(N)[C@H](O)[C@H](C)O2)Oc2ccc(cc2Cl)[C@H]1O [VAN, Vancomycin]",MIC,"S. aureus ATCC 25923; Staphylococcus aureus, ATCC25923",2 µg/mL
same,MIC,[1]; Staphylococcus aureus,1 µg/mL
gentamicin,MIC,S. aureus ATCC 25923; S. aureus ATCC 25923,0.064 µg/mL
same,MIC,[1]; S. aureus clinical strain P-3,0.5 µg/mL
